Laboratory results reported in patent publication US20240269106A1, “SMALL MOLECULE MODULATOR TARGETING A RARE HISTONE MODIFICATION REGULATING ADIPOGENESIS AND PHARMACEUTICAL FORMULATION THEREOF” (COUNCIL OF SCIENTIFIC AND INDUSTRIAL RESEARCH AN INDIAN …, priority 2021, published 2024).

Columns and labels:
[1] = Single dose toxicity study for maximum tolerated dose; assay type: in vivo
Protocol: The single dose toxicity study on compound X was conducted in accordance with Good Laboratory Practice Principles as published by the OECD in 1998, in accordance with the Drugs and Cosmetics Rule (New Drugs and Clinical trials, 2019/DCGI). Compound X (formulated in vehicle i.e. 0.5% sodium salt of carboxymethyl cellulose) was administered to Sprague Dawley rats once by oral route on the day of scheduled treatment. The three treatment groups were 250 mg, 500 mg, and 1000 mg/kg body weight, while vehicle control was administered to control group. The rat equivalent doses were calculated from the dosage used in mice experiments following FDA guidelines for drug administration. The doses finally administered were 10, 20 and 40 times the corresponding mice equivalent dose. Food, but not water, was removed thus letting the animals fast over-night prior to dosing. […] Animals were subsequently observed once daily for any signs of toxicity, mortality, or any other observations including conditions of skin, hair coat, eyes, mucous membrane, movement, activity, tremors, convulsions, salivation, diarrhea, posture, piloerection and lethargy. Food intake, water intake and body weight of animals was recorded weekly. Terminal sacrifice of surviving animals was performed after 14 days using CO2 euthanasia technique following which animals were necropsied. Animals were fasted over night before necropsy. Gross observations were recorded.

[2] = system: C57BL/6J mice maintained on high fat diet; test: Weight gain of mice maintained on high fat diet, compound mixed with diet; assay type: in vivo; details: 50 mg/kg bw mixed with high fat diet
Protocol: Male C57BL/6J mice (8 weeks old) were obtained and acclimatized for 1 week prior to experiments. Mice were maintained on a 12-hour light/dark cycle at 22+/−3° C. and a relative humidity of 55% and given ad libitum access to food and water. The age-matched C57BL/6J mice were maintained on a standard laboratory chow diet or high fat diet (60 kcal % fat) with or without compound of Formula I (50 mg/kg body weight) and water. Body weight and food intake was measured twice every week.
Trend of weight gaining after 16 weeks of C57BL6/J mice maintained on normal chow diet, high fat diet and high fat diet mixed with compound of Formula I was plotted (FIG. 9) (panel i); n=4 in each group:one-way ANOVA with Dunnett's multiple comparison; * P<0.05, ** P<0.01, *** P<0.001, ns: not significant. Representative images of dissected bodies showing fat accumulation (panel ii) and epididymal fat pads (panel iii) of the mice from three groups. Representative images of morphology of adipose tissue (iv) and liver (v) from the mice of the three groups, as studied by hematoxylin and eosin staining.

[3] = biological target: T1, full length p300 (Homo sapiens, UniProt Q09472); test: In vitro p300 acetylation assay (immunoblot); assay type: biochemical; details: same range of concentration (10, 15, 20 and 25 μM)
T1 construct: Purified full length p300 protein was used for in vitro acetylation/butyrylation assay
Protocol: Purified full length p300 protein was used for in vitro acetylation/butyrylation assay in presence/absence of different compounds. Acylation reactions were performed in reaction buffer (25 mM Tris-HCl PH 7.5, 100 mM NaCl, 0.1 mM EDTA, 1 mM DTT, 10% Glycerol, 1×PIC) with 100 ng/ml TSA, and 50 μM Butyryl-CoA/Acetyl COA. Xenopus histone H3 (500 ng) was used as the substrate and p300 (10,000 cpm activity) was used as the enzyme. Reactions were incubated in presence or absence of small molecule modulators (including compound of Formula I) for 10 minutes at 30° C., followed by initiation of the acetylation/butyrylation reaction by the addition of acetyl/butyryl CoA. After a further 10 minutes, reactions were stopped by addition of Laemmli buffer and samples were used for immunoblotting.
Immunoblotting with antibodies against acetylated H3K18, acetylated H3K9 and pan-butyryl lysine was performed to check for the relative inhibition of acetyl transferase and butyryl transferase activities of full length p300 by garcinol, isogarcinol and its different derivatives including compound of Formula I at different concentrations. FIG. 2i depicts the effect of garcinol, isogarcinol and two of its derivatives LTK-13 and LTK-14 on p300 catalysed acetyltransferase activity. […] FIG. 2ii depicts the effect of LTK-14 on acetylation and butyrylation catalysed by p300. Lane 1, enzyme alone; Lane 2-4, enzyme+LTK-14 at concentrations 500 nM, 2 μM and 10 μM, respectively. LTK-14 could inhibit acetylation at 10 μM concentration while butyrylation was inhibited at 2 μM concentration. FIG. 2iii depicts the effect of compound x on acetylation and butyrylation catalysed by p300. Lane 1, enzyme alone; Lane 2, enzyme+DMSO; Lane 3-6, enzyme+compound x at concentrations 10, 15, 20 and 25 μM, respectively.

T1 sequence (Q09472 whole entry, species assumed): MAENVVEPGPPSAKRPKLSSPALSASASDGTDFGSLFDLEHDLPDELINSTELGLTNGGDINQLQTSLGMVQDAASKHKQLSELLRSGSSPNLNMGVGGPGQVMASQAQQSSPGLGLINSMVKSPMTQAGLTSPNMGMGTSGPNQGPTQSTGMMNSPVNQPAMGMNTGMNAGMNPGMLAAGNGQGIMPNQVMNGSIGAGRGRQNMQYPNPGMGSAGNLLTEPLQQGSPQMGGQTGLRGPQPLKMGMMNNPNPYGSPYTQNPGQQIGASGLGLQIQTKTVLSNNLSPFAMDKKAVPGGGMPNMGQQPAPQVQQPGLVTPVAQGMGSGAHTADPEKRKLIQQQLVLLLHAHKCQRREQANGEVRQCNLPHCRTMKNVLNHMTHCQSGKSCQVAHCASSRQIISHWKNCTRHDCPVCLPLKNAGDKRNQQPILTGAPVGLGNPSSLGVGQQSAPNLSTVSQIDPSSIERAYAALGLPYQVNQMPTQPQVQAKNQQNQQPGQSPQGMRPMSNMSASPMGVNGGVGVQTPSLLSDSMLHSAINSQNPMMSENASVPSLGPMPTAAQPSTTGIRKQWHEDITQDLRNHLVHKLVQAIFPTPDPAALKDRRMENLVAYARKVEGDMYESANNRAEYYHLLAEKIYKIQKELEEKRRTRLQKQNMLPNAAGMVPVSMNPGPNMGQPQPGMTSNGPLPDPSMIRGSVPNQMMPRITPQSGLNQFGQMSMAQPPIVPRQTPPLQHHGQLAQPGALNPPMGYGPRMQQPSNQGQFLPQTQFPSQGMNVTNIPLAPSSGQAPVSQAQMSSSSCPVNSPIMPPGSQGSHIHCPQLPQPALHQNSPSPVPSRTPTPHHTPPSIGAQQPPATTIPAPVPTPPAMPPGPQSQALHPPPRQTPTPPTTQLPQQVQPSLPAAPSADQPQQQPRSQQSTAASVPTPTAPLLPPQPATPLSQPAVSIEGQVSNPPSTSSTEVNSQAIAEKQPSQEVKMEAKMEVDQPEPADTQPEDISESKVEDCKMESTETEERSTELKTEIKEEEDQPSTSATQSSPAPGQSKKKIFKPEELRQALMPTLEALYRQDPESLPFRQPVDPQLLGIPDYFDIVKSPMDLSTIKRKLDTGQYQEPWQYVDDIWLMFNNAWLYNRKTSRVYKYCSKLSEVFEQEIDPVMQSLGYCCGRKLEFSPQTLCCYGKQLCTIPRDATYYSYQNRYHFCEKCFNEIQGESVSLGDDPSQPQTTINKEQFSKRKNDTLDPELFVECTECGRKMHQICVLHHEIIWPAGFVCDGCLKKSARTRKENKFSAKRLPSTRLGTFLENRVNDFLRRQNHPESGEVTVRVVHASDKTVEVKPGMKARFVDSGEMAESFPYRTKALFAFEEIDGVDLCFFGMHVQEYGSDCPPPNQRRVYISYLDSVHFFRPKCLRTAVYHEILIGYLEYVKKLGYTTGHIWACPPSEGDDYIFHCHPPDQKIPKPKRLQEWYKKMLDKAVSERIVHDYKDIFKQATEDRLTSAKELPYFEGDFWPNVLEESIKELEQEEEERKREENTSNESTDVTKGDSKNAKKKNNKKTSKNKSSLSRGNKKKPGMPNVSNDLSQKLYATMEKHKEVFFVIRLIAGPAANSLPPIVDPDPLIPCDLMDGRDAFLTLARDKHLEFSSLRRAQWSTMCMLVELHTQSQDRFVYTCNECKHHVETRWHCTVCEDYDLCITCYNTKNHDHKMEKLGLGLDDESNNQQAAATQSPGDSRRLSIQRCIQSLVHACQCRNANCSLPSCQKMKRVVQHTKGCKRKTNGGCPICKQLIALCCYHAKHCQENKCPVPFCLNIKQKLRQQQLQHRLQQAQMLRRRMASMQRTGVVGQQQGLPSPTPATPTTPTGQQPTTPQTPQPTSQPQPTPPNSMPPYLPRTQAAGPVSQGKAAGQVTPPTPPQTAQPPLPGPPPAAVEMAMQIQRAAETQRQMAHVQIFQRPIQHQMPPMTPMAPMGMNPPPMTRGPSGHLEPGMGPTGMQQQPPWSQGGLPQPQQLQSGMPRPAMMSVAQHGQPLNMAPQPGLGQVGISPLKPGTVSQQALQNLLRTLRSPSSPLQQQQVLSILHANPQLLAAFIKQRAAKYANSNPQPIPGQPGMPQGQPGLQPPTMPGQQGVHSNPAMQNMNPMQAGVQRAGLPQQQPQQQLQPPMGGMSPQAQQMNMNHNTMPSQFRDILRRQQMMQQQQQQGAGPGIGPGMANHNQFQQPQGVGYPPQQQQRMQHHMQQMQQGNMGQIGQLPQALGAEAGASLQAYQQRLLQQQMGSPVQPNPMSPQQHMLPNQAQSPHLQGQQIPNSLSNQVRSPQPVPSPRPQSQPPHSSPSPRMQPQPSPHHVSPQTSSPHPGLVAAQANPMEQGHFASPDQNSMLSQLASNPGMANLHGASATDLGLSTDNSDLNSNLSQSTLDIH

## COc1ccc(C(=O)C2=C3OC(C)(C)[C@@H](CC=C(C)C)C[C@@]34C[C@@H](CC=C(C)C)C(C)(C)[C@@](CC=C(C)C)(C2=O)C4=O)cc1OC [Compound X]
[1]; 250, 500, 1000 mg/kg single oral dose, necropsy
  gross morphological changes in organs: no gross morphological changes in any organ
[1]; Female, 250 mg/Kg bw
  Average food intake, Final: 16.65 gram/day/animal
  Average food intake, Initial: 20 gram/day/animal
  Average food intake, Middle: 16.32 gram/day/animal
  Average water intake, Final: 16.65 ml/day/animal
  Average water intake, Initial: 20 ml/day/animal
  Average water intake, Middle: 16.32 ml/day/animal
  Body weight, Final: 176.35 gram
  Body weight, Initial: 151.99 gram
  Body weight, Mid: 174.54 gram
[1]; Female, 500 mg/Kg bw
  Average food intake, Final: 17.09 gram/day/animal
  Average food intake, Initial: 18.22 gram/day/animal
  Average food intake, Middle: 18.13 gram/day/animal
  Average water intake, Final: 17.09 ml/day/animal
  Average water intake, Initial: 18.22 ml/day/animal
  Average water intake, Middle: 18.13 ml/day/animal
  Body weight, Final: 175.8 gram
  Body weight, Initial: 153.32 gram
  Body weight, Mid: 176.55 gram
[1]; Female, 1000 mg/Kg bw
  Average food intake, Final: 16.97 gram/day/animal
  Average food intake, Initial: 18.17 gram/day/animal
  Average food intake, Middle: 17.82 gram/day/animal
  Average water intake, Final: 16.97 ml/day/animal
  Average water intake, Initial: 18.17 ml/day/animal
  Average water intake, Middle: 17.82 ml/day/animal
  Body weight, Final: 179.52 gram
  Body weight, Initial: 153.81 gram
  Body weight, Mid: 178.58 gram
[1]; Male, 250 mg/Kg bw
  Average food intake, Final: 22.62 gram/day/animal
  Average food intake, Initial: 20.03 gram/day/animal
  Average food intake, Middle: 20.79 gram/day/animal
  Average water intake, Final: 22.62 ml/day/animal
  Average water intake, Initial: 20.03 ml/day/animal
  Average water intake, Middle: 20.79 ml/day/animal
  Body weight, Final: 244.21 gram
  Body weight, Initial: 171.94 gram
  Body weight, Mid: 216.62 gram
[1]; Male, 500 mg/Kg bw
  Average food intake, Final: 23.29 gram/day/animal
  Average food intake, Initial: 20.99 gram/day/animal
  Average food intake, Middle: 21.14 gram/day/animal
  Average water intake, Final: 23.29 ml/day/animal
  Average water intake, Initial: 20.99 ml/day/animal
  Average water intake, Middle: 21.14 ml/day/animal
  Body weight, Final: 243.14 gram
  Body weight, Initial: 176.3 gram
  Body weight, Mid: 229.75 gram
[1]; Male, 1000 mg/Kg bw
  Average food intake, Final: 19.95 gram/day/animal
  Average food intake, Initial: 20.76 gram/day/animal
  Average food intake, Middle: 20.74 gram/day/animal
  Average water intake, Final: 19.95 ml/day/animal
  Average water intake, Initial: 20.76 ml/day/animal
  Average water intake, Middle: 20.74 ml/day/animal
  Body weight, Final: 226.19 gram
  Body weight, Initial: 176.24 gram
  Body weight, Mid: 217.65 gram
[1]; both gender, all three doses vs vehicle control
  effect on food and water consumption: no significant treatment related effect
[2]
  adipose tissue hypertrophy: less hypertrophy
  liver lipid accumulation: less lipid accumulation
[2]; 16 weeks
  weight gain: prevented weight gain
[3]
  effect on acetylation catalysed by p300: without affecting acetylation
